Assay: xn = mol fraction of the nth substance listed
Conditions: 101 kPa, Liquid; for speed of sound: Frequency=3 MHz, Single path-length method; for mass density: Vibrating tube method

O=C1CCCN1 [2-pyrrolidinone] + CC(O)CO
Conditions | mass density, 303.15 K [kg/m3] | mass density, 308.15 K [kg/m3] | mass density, 313.15 K [kg/m3] | mass density, 318.15 K [kg/m3] | mass density, 323.15 K [kg/m3] | speed of sound, 303.15 K [m/s] | speed of sound, 308.15 K [m/s] | speed of sound, 313.15 K [m/s] | speed of sound, 318.15 K [m/s] | speed of sound, 323.15 K [m/s]
x1 = 0.0994 | 1038.42 | 1034.26 | 1030.26 | 1026.14 | 1021.99 | 1511.8 | 1497.1 | 1482.2 | 1467.6 | 1453
x1 = 0.1962 | 1047.15 | 1042.74 | 1038.53 | 1034.14 | 1029.74 | 1526.8 | 1511.5 | 1496.4 | 1481.6 | 1466.5
x1 = 0.3038 | 1056.3 | 1051.69 | 1047.29 | 1042.69 | 1038.13 | 1543.7 | 1528.1 | 1512.5 | 1497.3 | 1481.7
x1 = 0.4148 | 1065.17 | 1060.55 | 1055.91 | 1051.2 | 1046.49 | 1560.1 | 1544.3 | 1528.5 | 1513.2 | 1497.3
x1 = 0.5021 | 1071.72 | 1067.1 | 1062.38 | 1057.63 | 1052.9 | 1571.9 | 1555.9 | 1540 | 1524.6 | 1508.5
x1 = 0.5951 | 1078.36 | 1073.71 | 1069.03 | 1064.29 | 1059.57 | 1583.5 | 1567.3 | 1551.2 | 1535.7 | 1519.4
x1 = 0.6891 | 1084.67 | 1080.01 | 1075.46 | 1070.79 | 1066.14 | 1594.1 | 1577.5 | 1561.4 | 1545.9 | 1529.3
x1 = 0.7994 | 1091.64 | 1087.08 | 1082.66 | 1078.14 | 1073.64 | 1604.8 | 1588.2 | 1572 | 1556.7 | 1539.9
x1 = 0.8908 | 1097.03 | 1092.6 | 1088.37 | 1084.03 | 1079.69 | 1612.3 | 1595.6 | 1579.6 | 1563.9 | 1546.7
x1 = 1 | 1103.07 | 1098.99 | 1094.9 | 1090.82 | 1086.75 | 1617.7 | 1601.3 | 1585.4 | 1570.4 | 1553.5

OCCCO [propan-1,3-diol] + O=C1CCCN1
Conditions | mass density, 303.15 K [kg/m3] | mass density, 308.15 K [kg/m3] | mass density, 313.15 K [kg/m3] | mass density, 318.15 K [kg/m3] | mass density, 323.15 K [kg/m3] | speed of sound, 303.15 K [m/s] | speed of sound, 308.15 K [m/s] | speed of sound, 313.15 K [m/s] | speed of sound, 318.15 K [m/s] | speed of sound, 323.15 K [m/s]
x2 = 0 | 1046.56 | 1043.43 | 1040.28 | 1037.11 | 1033.92 | 1617.6 | 1606.2 | 1594.8 | 1583.5 | 1572.1
x2 = 0.1108 | 1052.98 | 1049.7 | 1046.4 | 1043.08 | 1039.74 | 1619.8 | 1607.5 | 1595.3 | 1583.4 | 1571.2
x2 = 0.2172 | 1059.11 | 1055.69 | 1052.25 | 1048.8 | 1045.34 | 1621.2 | 1608.3 | 1595.4 | 1582.9 | 1569.9
x2 = 0.3044 | 1064.1 | 1060.58 | 1057.04 | 1053.49 | 1049.93 | 1621.9 | 1608.6 | 1595.3 | 1582.3 | 1568.7
x2 = 0.4174 | 1070.53 | 1066.89 | 1063.24 | 1059.57 | 1055.89 | 1622.4 | 1608.5 | 1594.6 | 1581.1 | 1566.8
x2 = 0.5076 | 1075.64 | 1071.91 | 1068.17 | 1064.41 | 1060.65 | 1622.4 | 1608 | 1593.7 | 1579.9 | 1565.1
x2 = 0.6177 | 1081.83 | 1078 | 1074.17 | 1070.32 | 1066.47 | 1621.9 | 1607 | 1592.3 | 1578.2 | 1562.8
x2 = 0.6909 | 1085.92 | 1082.04 | 1078.15 | 1074.25 | 1070.34 | 1621.4 | 1606.2 | 1591.2 | 1576.8 | 1561.1
x2 = 0.8139 | 1092.77 | 1088.8 | 1084.83 | 1080.85 | 1076.87 | 1620.2 | 1604.5 | 1589 | 1574.4 | 1558.2
x2 = 0.8736 | 1096.07 | 1092.07 | 1088.06 | 1084.05 | 1080.04 | 1619.5 | 1603.5 | 1587.9 | 1573.1 | 1556.8

— the NIST ThermoML archive (doi:10.1016/j.jct.2017.03.022)
